In ChEMBL document CHEMBL1201862, “PubChem BioAssay data set” (2004):
Calls of active or inactive are those of the source.

Tests used:
cells [1] = format: functional, cell-based
cells [2] = format: functional, cell-based; remark: listed apart in the source
Leucine aminopeptidase = target: T1, Leucine aminopeptidase (Plasmodium falciparum 3D7, UniProt Q8IL11); assay: P. falciparum M17LAP inhibitors, primary screen, biochemical, fluorogenic H-Leu-NHMec substrate, 1536-well (AID 1619); format: functional
T1 sequence (Q8IL11 whole entry): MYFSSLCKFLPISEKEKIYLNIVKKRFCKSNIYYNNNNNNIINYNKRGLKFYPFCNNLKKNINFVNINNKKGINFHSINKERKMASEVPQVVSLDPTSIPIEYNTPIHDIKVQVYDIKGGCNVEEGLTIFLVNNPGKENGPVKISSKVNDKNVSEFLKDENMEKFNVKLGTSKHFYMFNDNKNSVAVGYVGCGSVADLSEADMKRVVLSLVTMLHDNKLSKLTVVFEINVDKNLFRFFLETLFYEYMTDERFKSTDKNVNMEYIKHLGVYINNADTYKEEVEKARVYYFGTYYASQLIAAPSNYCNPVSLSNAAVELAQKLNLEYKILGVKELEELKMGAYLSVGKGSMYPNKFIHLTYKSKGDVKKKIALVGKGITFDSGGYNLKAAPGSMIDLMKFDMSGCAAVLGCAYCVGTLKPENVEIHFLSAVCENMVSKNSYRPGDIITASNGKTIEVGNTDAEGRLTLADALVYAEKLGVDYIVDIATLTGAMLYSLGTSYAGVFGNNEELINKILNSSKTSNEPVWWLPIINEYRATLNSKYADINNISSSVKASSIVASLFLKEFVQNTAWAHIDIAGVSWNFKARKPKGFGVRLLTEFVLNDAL

Cytochrome P450 2C9 = Cytochrome P450 2C9 (Homo sapiens, UniProt P11712)
Sequence of Cytochrome P450 2C9 (P11712 whole entry): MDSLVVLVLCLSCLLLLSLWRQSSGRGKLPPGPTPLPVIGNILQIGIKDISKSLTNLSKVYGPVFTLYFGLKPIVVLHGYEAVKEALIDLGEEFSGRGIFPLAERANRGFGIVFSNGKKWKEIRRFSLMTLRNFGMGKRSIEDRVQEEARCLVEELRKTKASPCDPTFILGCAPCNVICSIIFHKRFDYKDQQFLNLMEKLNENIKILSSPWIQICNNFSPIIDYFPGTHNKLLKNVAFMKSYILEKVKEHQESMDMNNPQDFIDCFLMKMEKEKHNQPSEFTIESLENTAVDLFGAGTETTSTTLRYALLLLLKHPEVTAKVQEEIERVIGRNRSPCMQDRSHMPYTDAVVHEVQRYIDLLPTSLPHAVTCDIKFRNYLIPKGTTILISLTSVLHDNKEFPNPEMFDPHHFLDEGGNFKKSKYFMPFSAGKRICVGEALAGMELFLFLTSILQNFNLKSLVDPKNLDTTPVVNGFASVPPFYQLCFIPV

Cytochrome P450 1A2 = target: T2, Cytochrome P450 1A2 (Homo sapiens, UniProt P05177);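 further: PubChem cytochrome P450 panel assay, CYP1A2 panel member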
T2 sequence (P05177 whole entry): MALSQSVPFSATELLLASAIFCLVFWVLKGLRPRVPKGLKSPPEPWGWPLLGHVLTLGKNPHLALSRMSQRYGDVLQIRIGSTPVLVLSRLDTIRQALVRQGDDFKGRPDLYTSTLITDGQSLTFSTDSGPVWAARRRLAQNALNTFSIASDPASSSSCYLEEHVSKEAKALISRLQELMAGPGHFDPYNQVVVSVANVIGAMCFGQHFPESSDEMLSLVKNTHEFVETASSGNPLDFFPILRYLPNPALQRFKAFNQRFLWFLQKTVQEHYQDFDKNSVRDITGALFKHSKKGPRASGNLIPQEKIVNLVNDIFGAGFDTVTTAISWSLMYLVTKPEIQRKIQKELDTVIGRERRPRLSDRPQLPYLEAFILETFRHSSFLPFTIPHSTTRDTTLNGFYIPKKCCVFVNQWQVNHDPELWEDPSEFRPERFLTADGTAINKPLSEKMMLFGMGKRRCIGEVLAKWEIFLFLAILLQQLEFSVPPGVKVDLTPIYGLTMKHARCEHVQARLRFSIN

Cytochrome P450 2C19 = Cytochrome P450 2C19 (Homo sapiens, UniProt P33261); assay: Cytochrome panel assay with activity outcomes. Panel member name: p450-cyp2c19 Compounds with AC50 equal or less than 10 uM are considered active; format: functional
Sequence of Cytochrome P450 2C19 (P33261 whole entry): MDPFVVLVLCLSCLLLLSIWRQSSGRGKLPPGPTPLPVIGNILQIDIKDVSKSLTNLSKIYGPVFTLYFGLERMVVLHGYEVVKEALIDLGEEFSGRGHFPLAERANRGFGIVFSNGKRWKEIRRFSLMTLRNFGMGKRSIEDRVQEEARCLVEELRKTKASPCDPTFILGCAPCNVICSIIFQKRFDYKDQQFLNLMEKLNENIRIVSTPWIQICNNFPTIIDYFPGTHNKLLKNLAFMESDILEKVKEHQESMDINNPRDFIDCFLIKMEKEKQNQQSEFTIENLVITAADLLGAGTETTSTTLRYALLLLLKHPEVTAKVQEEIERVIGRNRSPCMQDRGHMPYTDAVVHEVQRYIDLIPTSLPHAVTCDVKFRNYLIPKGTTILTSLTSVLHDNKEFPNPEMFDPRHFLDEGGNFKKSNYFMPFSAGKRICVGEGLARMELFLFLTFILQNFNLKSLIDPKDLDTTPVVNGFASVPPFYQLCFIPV

[3] = HEp-2 cell cytotoxicity, dose response, cytotoxicity control for RSV inhibitor project, HTS (AID 2410); format: functional; conditions: human respiratory syncytial virus
Fatty acid synthase = Fatty acid synthase (Homo sapiens, UniProt P49327); assay: FAS thioesterase domain inhibitors, dose response, biochemical, kinetic fluorescence intensity (AID 624326); format: functional;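 further: rate of fluorescence rise from hydrolysis of a fluorogenic O-methyl fluorescein ester substrate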
Sequence of Fatty acid synthase (P49327 whole entry, the tested form may be a part): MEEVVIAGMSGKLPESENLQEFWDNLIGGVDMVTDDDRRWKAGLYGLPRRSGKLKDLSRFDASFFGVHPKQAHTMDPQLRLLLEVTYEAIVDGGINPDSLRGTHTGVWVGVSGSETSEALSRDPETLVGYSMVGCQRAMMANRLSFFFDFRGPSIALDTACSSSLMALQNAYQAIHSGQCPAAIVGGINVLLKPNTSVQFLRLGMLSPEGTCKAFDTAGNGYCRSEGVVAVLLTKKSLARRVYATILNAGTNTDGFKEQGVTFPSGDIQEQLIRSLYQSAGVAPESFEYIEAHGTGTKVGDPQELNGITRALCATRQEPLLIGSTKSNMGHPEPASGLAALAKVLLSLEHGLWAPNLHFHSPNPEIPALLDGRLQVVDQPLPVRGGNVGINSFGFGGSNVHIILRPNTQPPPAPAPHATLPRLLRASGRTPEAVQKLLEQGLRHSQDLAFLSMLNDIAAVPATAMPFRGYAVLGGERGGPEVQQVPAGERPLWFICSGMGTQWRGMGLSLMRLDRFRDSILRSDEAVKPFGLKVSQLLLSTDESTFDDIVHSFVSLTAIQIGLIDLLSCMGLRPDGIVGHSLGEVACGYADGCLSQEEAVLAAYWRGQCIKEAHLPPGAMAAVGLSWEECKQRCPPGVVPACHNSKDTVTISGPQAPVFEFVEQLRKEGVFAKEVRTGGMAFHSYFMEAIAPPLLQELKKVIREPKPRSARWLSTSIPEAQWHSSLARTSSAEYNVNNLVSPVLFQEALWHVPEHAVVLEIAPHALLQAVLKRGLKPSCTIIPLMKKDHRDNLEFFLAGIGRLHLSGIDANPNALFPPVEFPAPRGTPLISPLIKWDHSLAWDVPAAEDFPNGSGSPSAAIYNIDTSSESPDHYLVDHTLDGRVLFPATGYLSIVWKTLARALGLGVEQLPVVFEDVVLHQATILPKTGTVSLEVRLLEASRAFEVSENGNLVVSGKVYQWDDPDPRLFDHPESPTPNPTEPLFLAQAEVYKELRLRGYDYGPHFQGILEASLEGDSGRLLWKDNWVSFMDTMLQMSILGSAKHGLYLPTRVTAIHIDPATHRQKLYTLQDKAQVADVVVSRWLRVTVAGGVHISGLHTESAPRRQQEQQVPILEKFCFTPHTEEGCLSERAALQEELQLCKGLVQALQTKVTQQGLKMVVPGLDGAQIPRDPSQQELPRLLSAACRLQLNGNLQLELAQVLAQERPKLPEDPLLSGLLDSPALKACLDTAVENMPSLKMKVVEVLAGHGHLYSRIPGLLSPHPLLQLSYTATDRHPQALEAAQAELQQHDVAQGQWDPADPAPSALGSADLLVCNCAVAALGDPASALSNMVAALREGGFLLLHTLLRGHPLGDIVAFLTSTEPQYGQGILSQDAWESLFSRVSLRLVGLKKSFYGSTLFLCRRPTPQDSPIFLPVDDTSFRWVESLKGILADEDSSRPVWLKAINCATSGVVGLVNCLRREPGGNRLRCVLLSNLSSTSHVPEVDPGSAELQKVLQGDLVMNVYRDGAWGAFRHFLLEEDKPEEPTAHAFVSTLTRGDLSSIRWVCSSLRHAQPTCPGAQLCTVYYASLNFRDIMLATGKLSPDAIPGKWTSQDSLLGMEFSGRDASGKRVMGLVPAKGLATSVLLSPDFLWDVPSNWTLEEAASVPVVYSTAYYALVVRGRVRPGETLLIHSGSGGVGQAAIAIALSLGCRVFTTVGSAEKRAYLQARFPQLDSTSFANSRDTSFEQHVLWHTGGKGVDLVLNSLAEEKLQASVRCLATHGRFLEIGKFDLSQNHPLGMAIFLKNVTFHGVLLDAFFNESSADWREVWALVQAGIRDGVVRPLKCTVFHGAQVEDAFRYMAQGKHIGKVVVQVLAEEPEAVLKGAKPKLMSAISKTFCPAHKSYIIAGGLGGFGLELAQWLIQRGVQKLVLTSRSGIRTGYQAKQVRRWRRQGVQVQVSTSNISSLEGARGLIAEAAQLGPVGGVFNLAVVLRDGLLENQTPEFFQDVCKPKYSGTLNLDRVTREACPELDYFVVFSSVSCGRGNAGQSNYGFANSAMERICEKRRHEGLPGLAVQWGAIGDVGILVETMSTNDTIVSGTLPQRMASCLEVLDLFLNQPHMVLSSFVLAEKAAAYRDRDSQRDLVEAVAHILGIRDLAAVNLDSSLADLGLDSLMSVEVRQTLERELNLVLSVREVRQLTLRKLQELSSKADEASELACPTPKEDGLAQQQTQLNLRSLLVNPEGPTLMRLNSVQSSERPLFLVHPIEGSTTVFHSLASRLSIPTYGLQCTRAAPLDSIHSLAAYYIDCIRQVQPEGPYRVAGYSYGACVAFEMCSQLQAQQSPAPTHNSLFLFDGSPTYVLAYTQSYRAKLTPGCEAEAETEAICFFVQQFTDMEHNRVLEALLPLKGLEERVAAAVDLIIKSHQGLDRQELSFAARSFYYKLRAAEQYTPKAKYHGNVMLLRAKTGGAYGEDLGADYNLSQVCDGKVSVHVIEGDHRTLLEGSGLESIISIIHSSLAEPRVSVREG

[4] = target: T3, Rac GTPase-activating protein 1 (Homo sapiens, UniProt Q9H0H5); assay: MgcRacGAP GTPase-activating activity inhibitors, confirmation, biochemical, ADP Hunter fluorescence, primary and confirmatory (AID 624330); format: functional
T3 sequence (Q9H0H5 whole entry): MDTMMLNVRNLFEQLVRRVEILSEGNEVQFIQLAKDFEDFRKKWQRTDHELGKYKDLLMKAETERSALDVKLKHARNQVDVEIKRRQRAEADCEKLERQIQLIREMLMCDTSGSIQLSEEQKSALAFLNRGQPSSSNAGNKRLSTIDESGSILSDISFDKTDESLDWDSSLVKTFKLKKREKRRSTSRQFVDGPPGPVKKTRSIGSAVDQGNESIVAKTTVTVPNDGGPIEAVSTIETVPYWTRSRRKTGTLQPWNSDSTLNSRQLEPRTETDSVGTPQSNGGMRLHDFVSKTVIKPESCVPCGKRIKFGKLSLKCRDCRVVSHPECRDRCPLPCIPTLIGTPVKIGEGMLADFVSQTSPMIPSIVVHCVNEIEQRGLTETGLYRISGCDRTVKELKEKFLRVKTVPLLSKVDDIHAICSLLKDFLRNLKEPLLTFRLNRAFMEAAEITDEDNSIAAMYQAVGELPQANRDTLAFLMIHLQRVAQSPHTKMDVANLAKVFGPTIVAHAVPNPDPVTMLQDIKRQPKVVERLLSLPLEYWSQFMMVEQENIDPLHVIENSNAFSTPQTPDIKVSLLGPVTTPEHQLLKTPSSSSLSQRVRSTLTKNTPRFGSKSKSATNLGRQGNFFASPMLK

[5] = target: FAD-linked sulfhydryl oxidase ALR (Homo sapiens, UniProt P55789); assay: inhibitors of human ALR sulfhydryl oxidase, dose response, biochemical, H2O2 detection, luminescence, cherry-pick (AID 493248)
Sequence of FAD-linked sulfhydryl oxidase ALR (P55789 whole entry): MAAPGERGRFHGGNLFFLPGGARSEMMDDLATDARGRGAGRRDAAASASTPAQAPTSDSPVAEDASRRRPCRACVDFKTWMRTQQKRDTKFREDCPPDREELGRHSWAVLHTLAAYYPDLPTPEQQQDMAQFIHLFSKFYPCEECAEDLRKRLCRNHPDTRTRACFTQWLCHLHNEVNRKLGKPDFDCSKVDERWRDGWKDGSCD

H4 = assay: Luminescence Cell-Based Dose Response HTS to Identify Activators of 5'UTR Stem-Loop Driven Prion Protein mRNA Translation in H4 Neuroglioblastoma Cells. [Related pubchem assays: 1829 (Project Summary), 1814 (Primary HTS)]; format: functional; conditions: Homo sapiens
[6] = Luminescence Cell-Based Dose Response HTS to Identify Activators of Luciferase Translation or Activity in H4 […] Cells. [Related pubchem assays: 1829 (Project Summary), 1814 (Primary HTS)]; format: functional
[7] = Luminescence Cell-Based Dose Confirmation HTS to Identify Activators of 5'UTR Stem-Loop Driven Alpha-Synuclein mRNA Translation in H4 Neuroglioblastoma Cells. [Related pubchem assays: 1829 (Project Summary), 1814 (Primary HTS)]; format: functional
Cytochrome P450 3A4 = Cytochrome P450 3A4 (Homo sapiens, UniProt P08684);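 further: CYP3A4 tested as one member of a cytochrome P450 panel screen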
Sequence of Cytochrome P450 3A4 (P08684 whole entry): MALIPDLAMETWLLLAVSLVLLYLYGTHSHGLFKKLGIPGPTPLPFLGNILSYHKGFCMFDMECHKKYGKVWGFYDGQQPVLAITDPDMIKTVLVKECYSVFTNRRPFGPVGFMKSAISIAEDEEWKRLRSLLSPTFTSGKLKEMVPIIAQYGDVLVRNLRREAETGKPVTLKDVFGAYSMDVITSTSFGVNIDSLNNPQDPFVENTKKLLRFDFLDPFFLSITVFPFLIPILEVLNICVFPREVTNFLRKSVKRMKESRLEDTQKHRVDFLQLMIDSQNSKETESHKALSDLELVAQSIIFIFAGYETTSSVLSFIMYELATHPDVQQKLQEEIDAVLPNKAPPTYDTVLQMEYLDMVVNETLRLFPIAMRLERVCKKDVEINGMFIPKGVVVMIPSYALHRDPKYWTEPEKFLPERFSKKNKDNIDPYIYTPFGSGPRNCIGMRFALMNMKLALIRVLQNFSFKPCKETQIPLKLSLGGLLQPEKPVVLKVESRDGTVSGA

[8] = control 3'UTR Renilla luciferase suppression, dose response, counter-screen for Shn3 inhibitor project, cell-based, Clone20-Shn3RL, cherry-picked (AID 624133); format: functional
[9] = Shn3 3'UTR reporter inhibitors, dose response, cell-based, Clone20 osteoblasts, firefly luciferase, cherry-picked (AID 624132); format: functional;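 further: firefly luciferase luminescence from reporter carrying the Shn3 3'UTR in osteoblasts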
Paired box protein Pax-8 = Paired box protein Pax-8 (Homo sapiens, UniProt Q06710); assay: inhibitors of PAX8-driven TPO luciferase reporter, dose response, RMG-I cells, cherry-pick (AID 687027); format: functional, cell-based;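 further: luciferase reporter driven by Pax8 target thyroperoxidase promoter measured by SteadyGlo luminescence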
Sequence of Paired box protein Pax-8 (Q06710 whole entry): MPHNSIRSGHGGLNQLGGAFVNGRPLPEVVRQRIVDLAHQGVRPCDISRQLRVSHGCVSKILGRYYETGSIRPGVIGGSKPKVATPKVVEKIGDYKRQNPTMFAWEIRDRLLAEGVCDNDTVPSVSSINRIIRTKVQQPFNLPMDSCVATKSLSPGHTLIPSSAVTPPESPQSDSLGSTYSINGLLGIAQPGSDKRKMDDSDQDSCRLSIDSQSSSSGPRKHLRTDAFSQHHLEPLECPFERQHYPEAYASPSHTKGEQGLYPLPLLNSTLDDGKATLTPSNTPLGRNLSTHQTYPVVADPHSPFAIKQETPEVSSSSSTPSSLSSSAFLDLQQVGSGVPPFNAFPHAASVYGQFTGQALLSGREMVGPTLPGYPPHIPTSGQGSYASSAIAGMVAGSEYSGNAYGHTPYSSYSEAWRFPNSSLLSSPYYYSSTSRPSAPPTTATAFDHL

[10] = Luminescence Cell-Based Dose Retest to Confirm Inhibitors of Cancer Stem Cells. [Related pubchem assays (depositor defined):AID2717, AID2721]; format: functional; conditions: Homo sapiens
INS1 = assay: beta cell apoptosis inhibitors, cytokine rescue, dose response, luminescence, retest (AID 449756); format: functional, cell-based; conditions: Rattus norvegicus;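 further: cell death triggered by IL-1 beta plus TNF-alpha plus IFN-gamma mixture; protective hits raise ATP signal compared with cytokine alone wells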

## S=C(Nc1ccc2c[nH]nc2c1)Nc1ccccc1Cl
Cells [1]
  EC50: > 350 µM (not active)
Cells [2]
  EC50: > 350 µM (not active)

## COc1ccc(C2CC(=O)c3sc(N)nc3C2)cc1 (stereo not drawn)
Leucine aminopeptidase
  IC50: 30.1 µM (active)

## CC(OC(=O)Cn1c(C(F)(F)F)nc2ccccc21)C(N)=O (stereo not drawn)
Cytochrome P450 2C9
  AC50: 0.631 µM (inconclusive)
Cytochrome P450 1A2
  AC50: 25.1 µM (inconclusive)
Cytochrome P450 2C19; read-out: AC50
  AC50: 28.2 µM (inconclusive)

## Cc1cc(=O)oc(C)c1C(=O)NCc1ccccc1
Cytochrome P450 2C19; read-out: AC50
  AC50: 39.8 µM (inconclusive)

## CN(CC(=O)Nc1ccc(Cl)c(C(F)(F)F)c1)C(=O)CCCNC(=O)c1ccc(Cl)cc1
[3]
  CC50: 2.49 µM (active)

## O=C(O)c1ccccc1Nc1ccc([N+](=O)[O-])cc1C(=O)O
Cells [1]
  EC50: > 350 µM (not active)
Cells [2]
  EC50: > 350 µM (not active)

## CC(C)(C)c1nc2scc(-c3cccs3)c2c(=O)o1
Fatty acid synthase
  IC50: 3.42 µM (active)

## S=C(c1ccc(-c2cc(Cl)ccc2Cl)o1)N1CCCCC1
[3]
  CC50: > 50 µM (active)

## Cc1ccc(NC(=O)c2nnn(-c3ccc4c(c3)OCCO4)c2N)cc1
[3]
  CC50: > 50 µM (active)

## CCCNC(=O)c1cc2nc(-c3ccccc3)cc(C(F)(F)F)n2n1
Cells [1]
  EC50: > 350 µM (not active)
Cells [2]
  EC50: > 350 µM (not active)

## CC(C)CN(CCNC(=O)c1cn(C)c2ccc(S(=O)(=O)N3CCCC3)cc2c1=O)CC(C)C
Cells [1]
  EC50: > 350 µM (not active)
Cells [2]
  EC50: > 350 µM (not active)

## COc1ccc(CCn2ccc(O)c(Cc3ccc(Cl)cc3)c2=O)cc1OC
[3]
  CC50: 20 µM (active)

## COc1ccc(-c2csc(NC(=O)c3cc(C)oc3C)n2)cc1OC
[3]
  CC50: 26.6 µM (active)

## O=C(NN=Cc1ccc(O)cc1)c1cc[n+](Cc2ccccc2)cc1
[4]
  IC50: 137 µM (active)
[5]
  AC50: 2.05 µM (active)

## Cc1ccc(NC(=O)NC2=NN(c3ccccc3)C(=O)/C2=C2/CCCN2C)cc1
H4
  EC50: 14.4 µM (active)
[6]
  EC50: 18.1 µM (active)
[7]
  EC50: 32.5 µM (active)

## CCS(=O)(=O)N1CCC(C(=O)NCc2cccnc2)CC1
Cytochrome P450 2C9
  AC50: 11.2 µM (inconclusive)
Cytochrome P450 2C19; read-out: AC50
  AC50: 22.4 µM (inconclusive)

## Cc1ccccc1-c1cc(C(=O)n2cccn2)c2cc(Cl)ccc2n1
Cytochrome P450 1A2
  AC50: 17.8 µM (inconclusive)
Cytochrome P450 2C19; read-out: AC50
  AC50: 7.08 µM (inconclusive)

## Cc1cc(NS(=O)(=O)c2ccc(NC(=O)Nc3ccc4c(c3)OCO4)cc2)no1
Leucine aminopeptidase
  IC50: 13.3 µM (active)

## OC(COc1ccc2ccccc2c1Cl)CN1CCOCC1 (stereo not drawn)
H4
  EC50: 9.81 µM (active)
[6]
  EC50: 6.79 µM (active)
[7]
  EC50: 4.79 µM (active)

## Cn1ccnc1Sc1nc2ccccc2nc1NS(=O)(=O)c1ccccc1
Leucine aminopeptidase
  IC50: 29.2 µM (active)

## CCC(Sc1nc(C)cc(O)n1)C(=O)Nc1sc2c(c1C#N)CCCC2 (stereo not drawn)
Cells [1]
  EC50: > 350 µM (not active)
Cells [2]
  EC50: > 350 µM (not active)

## CCOC(=O)N1CCN(C(=O)CSCc2ccc(Cl)cc2)CC1
Cytochrome P450 2C19; read-out: AC50
  AC50: 17.8 µM (inconclusive)

## CCCCC[C@H](CC(=O)NO)C(=O)N[C@@H](C(=O)N1CCC[C@H]1CO)C(C)C
Cytochrome P450 3A4
  AC50: 5.01 µM (inconclusive)
Cytochrome P450 2C19
  AC50: inconclusive

## CCOC(=O)c1sc(NC(=O)CSc2nnc[nH]2)c(C#N)c1C
Leucine aminopeptidase
  IC50: 73 µM (active)

## COC(=O)C1=C(c2ccc3ccccc3c2)C[C@@H]2CC[C@H]1N2C(=O)NCC1CC1
[8]
  AC50: 30.6 µM (active)
[9]
  AC50: 6.86 µM (active)

## CCOc1ccc2c(C)c(Cl)c(=O)oc2c1
Cells [1]
  EC50: > 350 µM (not active)
Cells [2]
  EC50: > 350 µM (not active)

## Cc1ccc2c(c1)C(O)(CC(=O)/C=C/C=C/c1ccccc1)C(=O)N2 (stereo not drawn)
H4
  EC50: > 120 µM (not active)
[6]
  EC50: 11.8 µM (active)
[7]
  EC50: 17 µM (active)

## C[C@@H]1CCCCO[C@@H](CN(C)C(=O)C2CCCCC2)[C@H](C)CN([C@@H](C)CO)C(=O)c2cc(NS(=O)(=O)c3ccc(Cl)cc3)ccc2O1
Paired box protein Pax-8
  AC50: 9.05 µM (active)

## C[C@@H]1CN([C@@H](C)CO)C(=O)Cc2cc(NC(=O)Nc3ccc(C(F)(F)F)cc3)ccc2O[C@H]1CN(C)S(=O)(=O)c1ccc(F)cc1
Paired box protein Pax-8
  AC50: 9.39 µM (active)

## CCN1C[C@]2(C)CC[C@H](OC)[C@@]34[C@@H]2[C@H](OC(C)=O)C2(OCO[C@@]25C[C@@H](OC)[C@H]2C[C@@]3(O)[C@H]5[C@@H]2OC)[C@H]14
Cytochrome P450 3A4
  AC50: 15.8 µM (inconclusive)
Cytochrome P450 2C19
  AC50: inconclusive

## Cc1cc(O)nc(N/N=C/c2ccccn2)n1
Cells [1]
  EC50: 40.4 µM (active)
Cells [2]
  EC50: 33.1 µM (active)
[10]
  AC50: 2.89 µM (active)
INS1
  AC50: 1.37 µM (active)

## O=C(O)c1cc(N/N=C/c2ccc(OCc3ccccc3)cc2)ccc1Cl
Leucine aminopeptidase
  IC50: 20 µM (active)

## CC1=NNC(=O)C1CC(=O)N/N=C(\C)c1ccco1 (stereo not drawn)
Leucine aminopeptidase
  IC50: 12.3 µM (active)

## Cn1ccnc1 [1-METHYLIMIDAZOLE]
Cytochrome P450 2C19
  AC50: inconclusive

## O=C(O)c1c2ccccc2cc2ccccc12 [ANTHRACENE-9-CARBOXYLIC ACID]
Cytochrome P450 2C19; read-out: AC50
  AC50: 25.1 µM (inconclusive)
